From paper PMC4326127, “Collagen Inhibitory Peptide R1R2 Mediates Vascular Remodeling by Decreasing Inflammation and Smooth Muscle Cell Activation” (PLoS ONE, 2015)

Assays:
Ki-67 (+) cells = assay: Ki-67 IHC, cell proliferation in carotid intima and media; type: in vivo, FVB/NJ (FVB) mice; conditions: 7 days post-surgery, mean ± SEM, n = 5 each
Protocol: (§1) Animals were anesthetized with isoflurane inhalation. The left common carotid artery was exposed, dissected free from the surrounding connective tissue and completely ligated with 6-0 silk suture just proximal to the carotid bifurcation. […] 4–10 mice were included in each experimental group.
Paraffin sections selected from the first mm of the carotid artery in each group were used for immunohistochemistry (IHC). […] Sections were then incubated with appropriate biotinylated secondary antibodies followed by avidin-biotin immunoperoxidase system (Vector Laboratories, Burlingame, CA). Liquid DAB Substrate Chromogen system (Dako, Carpinteria, CA) was used for detection.
Quantitative IHC analysis was performed on digital images captured with a 20x objective by using Image-Pro Plus software. Data from 3–6 mice for each group were averaged, and the average values ± SEM were shown. For FN, collagen type I, SM-MHC and SM α-actin, color digital images were transformed into gray scale, and the sum of the optical densities from the intima+media area in each section was determined. […] The percent of positive cells is reported as the proliferation index. […] The intima+media region was traced manually. The percent of positively stained area in intima+media to the total traced area was assessed.
For in vivo experiments, the data are shown as the mean ± SEM. […]

collagen = assay: Hydroxyproline assay of carotid collagen content; type: in vivo, FVB/NJ (FVB) mice; conditions: 14 days post-ligation; three carotid arteries pooled per group; colorimetric chloramine T; mean ± SEM, n = 3
Protocol: as §1
After reconstituting with water, samples were measured using a colorimetric chloramine T assay. Three independent experiments were performed for statistical analysis.
For in vivo experiments, the data are shown as the mean ± SEM. For in vitro experiments, the data shown are the means ± SD of a representative experiment, at least 3 independent experiments were performed. One-way ANOVA with post-hoc testing were used for data analysis with GraphPad Prism software (GraphPad, San Diego, CA). If normality test failed, nonparametric Kruskal-Wallis test followed by Dunn's post-hoc test were used. P > 0.05 was not considered significant.

For “GLNGENQKEPEQGERGEAGPPLSGLSGNNQGRPSLPGLNGENQKEPEQGERGEAGPP [R1R2]”, the “proliferation index (Ki-67 (+) cells/total cells)” value (Ki-67 (+) cells) was 11.20 ± 0.62% and the “collagen content, hydroxyproline assay” value (collagen) was 1.522 ± 0.077.
